The text below walks through data of patent US20110165113A1, “POLYMER CONJUGATES OF V681-LIKE PEPTIDES” (Nektar Therapeutics, priority 2008, published 2011).

Square brackets hold non-standard residues; d marks the D form. Peptide text beside a SMILES is read from it.

This series can be described thus: Pharmacokinetics after a single IV dose in rats. The following applies: male, Sprague-Dawley, rat, in vivo, equivalent protein mass of 1.0 mg/kg. The source says: The weight range of the animals was 311-346 grams. All animals were food fasted overnight. […] The predose sample was collected from the JVC.
Following the last collection point, the animals were euthanized.

What is called AUC(0-inf) is total exposure, with the tail of the curve extrapolated. One may read the Cmax as the maximum level reached in the sampled fluid or tissue. A word on the MRT: it is a mean duration of stay, worked out from the concentration-time curve. The term clearance denotes the rate of elimination divided by the concentration. As a reminder, the half-life is the time needed for the level to fall by half in the phase considered. Regarding `CC[C@H](C)[C@H](NC(=O)[C@H](C)NC(=O)[C@H](CCCCN)NC(=O)[C@H](CC(C)C)NC(=O)[C@H](C)NC(=O)[C@@H](NC(=O)[C@H](Cc1c[nH]cn1)NC(=O)[C@H](CC(C)C)NC(=O)[C@@H](NC(=O)[C@@H](NC(=O)[C@H](CCCCN)NC(=O)[C@@H](C)NC(=O)[C@H](C)NC(=O)[C@H](CO)NC(=O)[C@H](CCCCN)NC(=O)[C@H](Cc1ccccc1)NC(=O)[C@@H](NC(=O)[C@H](CCCCN)NC(=O)[C@H](CC(C)C)NC(=O)[C@H](Cc1ccccc1)NC(=O)[C@H](CO)NC(=O)[C@H](CCCCN)NC(=O)[C@H](Cc1c[nH]c2ccccc12)NC(=O)[C@H](CCCCN)NC(C)=O)[C@@H](C)O)[C@@H](C)O)C(C)C)[C@@H](C)O)C(=O)N[C@@H](CO)C(=O)N[C@@H](CO)C(N)=O` [V681 (V13AD)] (Ac-KWKSFLKTFKSA[dA]KTVLHTALKAISS-NH2), the AUC(0-inf) is 7210 ± 1430 ng·h/mL, the highest concentration (Cmax) is 16500 ± 9670 ng/mL, the MRT was 19.8 ± 4.8 min and the clearance was 2.37 mL/min/kg. The half-life was 36.6 ± 23.4 min. Besides, the Vd (read-out: Vss) came out at 0.0477 ± 0.018 L/kg.
